These results are taken from paper PMC6302903, “Protein and Chemical Determinants of BL-1249 Action and Selectivity for K2P Channels” (ACS Chemical Neuroscience, 2018).

For one assay, the target named is T1, K2P13.1(THIK-1) (Mus musculus, UniProt Q8R1P5).
T1 construct: expressed in transfected cells; host or cells: Xenopus laevis oocytes (mRNA injection, pGEMHE/pMO)
In words: TEVC of K2P13.1(THIK-1) in Xenopus oocytes. The following applies: concentrations up to the solubility limit (∼80 μM). It is filed as cell-based. The procedure: BL-1249 activates K2P2.1(TREK-1)[18],[40] and K2P10.1(TREK-2),[7] but its effects on other K2P channels have not been characterized. […] In order to test if the original 10 μM assay had missed BL-1249 effects in other K2P channels, we tested concentrations of BL-1249 up to the solubility limit (∼80 μM) against the other K2P subfamily representatives. […]
(§1) Xenopus laevis oocytes were harvested in accordance with UCSF IACUC protocol AN129690 and digested in calcium-free ND-96 (96 mM NaCl, 2 mM KCl, 3.8 mM MgCl2) immediately following harvest, as previously described.[6],[10] […] Defolliculated stage V–VI oocytes were injected with 0.2–6.0 ng of mRNA in 50 nL, and currents were recorded 24–48 h after injection. mRNA was synthesized from plasmid DNA using mMessage mMachine Kit (T7 promoter, Ambion, Life Technologies) and purified using RNEasy Kit (Qiagen). […] Once stabilized basal currents were recorded, compounds were perfused at various concentrations in standard ND96 and currents were allowed to increase to stabilization before recording final current. Fold activation upon compound application is expressed as I/I0 (0 mV), derived from the current at 0 mV in the presence of compound divided by the basal current at 0 mV in standard ND96 without compound. Data were analyzed and plotted using Graphpad Prism Version 5 (GraphPad Software, San Diego California USA, www.graphpad.com). […]

Another assay addresses T2, K2P10.1(TREK-2) (Mus musculus, UniProt Q8BUW1).
T2 construct: expressed in transfected cells; host or cells: Xenopus laevis oocytes injected with mRNA made from pGEMHE/pMO
In words: TEVC of K2P10.1(TREK-2) in Xenopus oocytes. In kind it is cell-based.
Source text: Constructs for murine K2P channels, including K2P2.1(TREK-1) (Gene ID 16526), K2P10.1(TREK-2) (Gene ID 72258), K2P4.1(TRAAK) (Gene ID 16528), K2P5.1(TASK-2) (Gene ID 16529), K2P3.1(TASK-1) (Gene ID 16527), K2P9.1(TASK-3) (Gene ID 223604), and K2P18.1(TRESK) (Gene ID 332396) in pGEMHE/pMO, were used for Xenopus oocyte experiments as previously described.[10],[26] Murine K2P2.1(TREK-1) (Gene ID 16526) was expressed in HEK-293 cells using a pIRES-EGFP construct as previously described.[26] Murine K2P13.1(THIK-1) (Gene ID 217826) and K2P1.1(TWIK-1) (Gene ID 16525) were cloned into pGEMHE/pMO for use in Xenopus oocytes. […]
as §1, with “current.” for “current. Fold activation upon compound application is expressed as I/I0 (0 mV), derived from the current at 0 mV in the presence of compound divided by the basal current at 0 mV in standard ND96 without compound. Data were analyzed and plotted using Graphpad Prism Version 5 (GraphPad Software, San Diego California USA, www.graphpad.com).”

SMILES strings stand for the structures.

T2 sequence (Q8BUW1 whole entry): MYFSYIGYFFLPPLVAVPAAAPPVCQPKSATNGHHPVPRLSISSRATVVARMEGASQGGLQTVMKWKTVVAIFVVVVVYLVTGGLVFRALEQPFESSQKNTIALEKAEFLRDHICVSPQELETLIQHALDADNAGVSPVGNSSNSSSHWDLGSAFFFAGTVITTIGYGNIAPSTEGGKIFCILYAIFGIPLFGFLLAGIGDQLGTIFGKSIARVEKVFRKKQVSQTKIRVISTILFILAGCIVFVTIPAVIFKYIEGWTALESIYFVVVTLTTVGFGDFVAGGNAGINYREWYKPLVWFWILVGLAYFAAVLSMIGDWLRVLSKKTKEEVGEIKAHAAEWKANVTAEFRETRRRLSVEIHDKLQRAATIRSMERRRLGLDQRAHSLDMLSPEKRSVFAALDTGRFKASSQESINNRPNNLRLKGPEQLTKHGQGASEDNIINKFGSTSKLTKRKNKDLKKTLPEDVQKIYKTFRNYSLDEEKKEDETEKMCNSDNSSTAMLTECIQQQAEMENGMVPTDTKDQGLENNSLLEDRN
T1 sequence (Q8R1P5 whole entry): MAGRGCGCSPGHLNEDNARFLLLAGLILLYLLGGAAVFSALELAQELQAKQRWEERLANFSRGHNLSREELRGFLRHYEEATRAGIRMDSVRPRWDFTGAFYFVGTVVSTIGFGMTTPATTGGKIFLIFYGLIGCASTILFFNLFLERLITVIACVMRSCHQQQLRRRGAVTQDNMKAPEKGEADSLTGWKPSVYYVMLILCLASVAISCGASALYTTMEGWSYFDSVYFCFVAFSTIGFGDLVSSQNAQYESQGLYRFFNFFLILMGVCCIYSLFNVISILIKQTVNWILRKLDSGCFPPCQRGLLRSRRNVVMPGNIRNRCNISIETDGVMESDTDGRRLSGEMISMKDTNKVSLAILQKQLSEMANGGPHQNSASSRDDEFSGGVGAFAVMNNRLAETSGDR

In the case of `c1ccc(-c2nnn[nH]2)c(Nc2cccc3c2CCCC3)c1` [BL-1249, (5,6,7,8-tetrahydro-naphthalen-1-yl)-[2-(1H-tetrazol-5-yl)-phenyl]-amine], at K2P13.1(THIK-1), the “activation of K2P13.1(THIK-1)” value is reported as “failed to find evidence for activation”. This molecule also yielded a concentration for a half-maximal effect (EC50) at K2P10.1(TREK-2) (I/I0 at 0 mV) of 8 ± 0.8 µM. Also, the “K2P10.1(TREK-2) current response” value at K2P10.1(TREK-2) (extracellular application of 10 μM) was “clear activation responses”.

Broadly, the EC50 is the concentration giving half of the maximal effect. Lower therefore signals an effect from little substance.
